Patent publication US10835513B2, “Methods and treatments for the learning and memory deficits associated with Noonan syndrome” (The Regents of the University of California, priority 2013, dated 2020)

How the values were obtained:
[1] = tested on: hippocampal slices from the AAV-PTPN11^D61G-infected mice; test: 5 TBS-induced CA1 Schaffer collateral LTP, extracellular field recordings, bath-applied SL327; assay type: cell-based; conditions: SL327 1 μM applied 1 hr before LTP induction and kept in bath
Excerpt: FIG. 3 are graphs showing that PTPN11^D61G overexpression induces learning and memory and LTP deficits that can be reversed by MEK inhibition. Panel a) AAV5-PTPN11^D61G infection results in overexpression of SHP2^D61G. […] Panel b) PTPN11^D61G overexpression increases basal Erk activity (phospho-Erk level) and prevents further Eric activation in response to TBS. Left, Representative immunoblot showing p-Erk (upper) and total Eric (lower) in PTPN11^D61G-expressing slices and GFP-expressing slices. Slices were prepared 1 hr after TBS. […] Panels c and d) MEK inhibitor SL327 (CAS 305350-87-2) reverses spatial memory deficits in PTPN11^D61G-overexpressing mice. […]
For extracellular recordings of field excitatory postsynaptic potentials (fEPSP), sagittal slices (400 μm) were prepared with a vibratome (VT1000S, Leica) in ice-cold artificial cerebrospinal fluid (ACSF). […] Recording was performed in a submerged chamber perfused with ACSF (32° C.). fEPSPs were recorded with platinum-iridium electrodes placed in the CA1 stratum radiatum. […] Baseline responses were measured with stimulation (0.017 Hz, 0.1 ms pulse duration) at an intensity (typically 20-30 μA) that evoked a response that was approximately one third of the maximum evoked response. […] Initial fEPSP slopes were measured and normalized to the average of baseline (Clampfit 10.2).

[2] = tested on: AAV-PTPN11^D61G-expressing mice; test: Morris water maze (hidden platform, probe trial) in AAV-PTPN11^D61G-expressing mice treated with SL327; assay type: in vivo; conditions: for proximity to the target platform, probe trial: SL327 32 mg/kg intraperitoneal
Experimental: To test whether reducing Erk activity could reverse the memory deficit in AAV-PTPN11^D61G-expressing mice, we treated these mice with the MEK inhibitor SL327 or vehicle daily, 30 min before training.
SL327 (Tocris) was dissolved in DMSO (16 mg/ml) and was injected intraperitoneally once daily, 30 min before the water maze experiment at a dose of 32 mg/kg. The volume of a single injection was under 80 μl. Lovastatin (Mevinolin, Sigma) was prepared as previously described^21. Briefly, lovastatin was dissolved in ethanol (final concentration of 8%) and 1N NaOH was added to convert mevinolin to the sodium salt. The pH of the final solution (4 mg/ml) was adjusted to 7.5 with HCl. The Vehicle solution was prepared with the same procedure. Lovastatin was administered daily (subcutaneous injection, 10 mg/kg) for 3 days before the first training day of the water maze and 6 hr before training every day thereafter.
The coding sequence of human PTPN11 with or without the D61G mutation was subcloned into the HindIII-NsiI site of the AAV expression vector pSOFF. The resultant vector expresses mutant PTPN11 under the synthetic CBA promoter (CMV enhancer and chicken beta-actin promoter). Recombinant virus (rAAV5) was purified as previously described^32. Briefly, an iodixanol gradient purification was performed followed by ion exchange chromatography step which results in a 99% pure vector preparation as judged by silver stained-SDS acrylamide gel fractionation. After the chromatography, the buffer was exchanged and the virus was concentrated in Ringer's solution using a Biomax 100 K concentrator (Millipore). Vector titers were determined by Real Time PCR. Typical titers were 3.09×10^12 genome copies/ml. rAAV5-GFP expressing only GFP was used as a control. […]
In the hidden platform-version of Morris water maze, mice were trained with two blocks of 2 trials (ITI=1 min) spaced about 45 min apart. […] Memory was assessed in probe trials that were given after completion of training as described in the main text. […] Data were acquired and analyzed using WaterMaze software (Actimetrics).

N#C/C(=C(/N)Sc1ccc(N)cc1)c1ccccc1C(F)(F)F [SL327] was tested, and the “Average % fEPSP changes (last 10 minutes of recording), 5 TBS-induced LTP” value ([1]; GFP slices) was 146.2±4.37%, the “Average % fEPSP changes (last 10 minutes of recording), 5 TBS-induced LTP” value ([1]; PTPN11^D61G slices) was 146.1±4.36% and the “proximity to the target platform, probe trial” value ([2]; GFP control group) was 43.75±1.45 cm. For the same compound, the “proximity to the target platform, probe trial” value ([2]; PTPN11^D61G group) was 45.52±2.14 cm and the “time spent in the target quadrant, probe trial” value ([2]; PTPN11^D61G-expressing mice, SL327 32 mg/kg intraperitoneal daily, 30 min before training) was 37.25±3.50%.
